The results in this text go back to US12653899B2, “Multi-targeted, tunable, sustained delivery of payloads to charged avascular tissues” (Massachusetts Institute of Technology, priority 2019, dated 2026).

“Also recorded” adds a separate entry of the source.

Holding throughout (type): cell-based
Assay [1] relates to human ankle cartilage explants. In words: Aggrecan/sGAG biosynthesis rate (35S-sulfate incorporation) in human ankle cartilage explants. The settings on record: for biosynthesis rate of explants compared to the untreated control: single 39.2 nM dose (equivalent to 300 ng/ml free IGF-1), FIGS. 19A-19B; for sGAG biosynthesis rate: single 500 nM, 1 μM and 2 μM doses, Day 0 to Day 3, both ankle and knee cartilage; for elevated biosynthesis rate after single dose, up to Day 7 / elevated biosynthesis rate after single dose, up to Day 15: single dose not replenished during media changes, FIG. 12 (ankle and knee). The method, then:
Cartilage was harvested from both ankles of a donor (Collins Grade 0). Cartilage explants were equilibrated in culture media for 3 days after harvest. […] These were cut down to 1 mm thickness and allowed to equilibrate for a further 2.5 days before experiments were set up. A dose response experiment and an uptake experiment were set up in parallel.
Subsets of the experiment were terminated at 3 days and 7 days from the start of the experiment. Media changes were performed every 2 to 3 days. 3 doses of free +9 GFP were included as additional controls, which tests whether high doses of the drug delivery carrier has adverse effects on aggrecan biosynthesis rate.
For the 3-day termination experiment, chondrocyte biosynthesis rate (primarily aggrecan synthesis) was measured between days 0 and 3 of the experiment using a 35S-sulfate radiolabel. For the 7-day experiment, this measurement was done between days 5 and 7. Statistics: 1-way ANOVA with post-hoc Tukey's HSD test.
Cartilage was harvested from the ankle of a donor (Collins Grade 1). Cartilage explants were equilibrated in culture media for 2 days after harvest. […] These were cut down to 1 mm thickness and allowed to equilibrate for a further 2.5 days before experiments were set up. A 7-day dose response experiment was set up.
Chondrocyte biosynthesis rate (primarily aggrecan synthesis) was measured between days 5 and 7 of the experiment using a 35S-sulfate radiolabel. Statistics: 1-way ANOVA with post-hoc Tukey's HSD test.
Cartilage explants that were equilibrated in culture medium post-harvest were transferred to ultra-low attachment cell culture plates (Corning) for dose response experiments. All experiments were carried out in low glucose, serum free medium (same composition as equilibration medium). Previous studies studying the effects of IGF-1 on cartilage explants have used doses ranging from 10 ng/ml to 300 ng/ml. Based on these, 300 ng/ml (equivalent to 39.2 nM) of free recombinant human IGF-1 (PeproTech, Rocky Hill, NJ) was used as the positive control.
Since each fusion protein had one IGF-1 domain, equivalent doses (39.2 nM) of these were tested. In addition to this, 500 nM, 1 μM and 2 μM doses of fusion proteins were also tested. In all cases, only a single dose of the fusion proteins was added at the start of the experiment, and media changes were carried out without fusion proteins once every 2 to 3 days thereafter. In contrast, continuous doses of free IGF-1 were used for the positive control. An untreated control group was also included in the experiments. Experiments were terminated at 3-day, 7-day and 15-day time points. Outcome measures included the biosynthesis rate of sulfated glycosaminoglycans (sGAG), explant metabolic rate, sGAG loss to the culture medium and the explant sGAG content at the end of the experiment.
The metabolic rate of cartilage explants was measured using the Alamar Blue assay (ThermoFisher). Cartilage explants were incubated for 3 hours in a 1× solution of Alamar Blue dissolved in culture medium. At the end of the incubation period, the absorbance of the medium at 570 nm and 600 nm was measured using a microplate reader (Synergy H1 Hybrid Multi-Mode Microplate Reader, BioTek). These readings were used to calculate the percentage reduction of Alamar Blue, which is directly proportional to the explant metabolic rate. These values were first normalized by individual explant weights. Following this, the weight-normalized readings for the treatment groups were normalized by the weight-normalized mean value for the untreated controls. To measure the chondrocyte biosynthesis rate of sulfated glycosaminoglycans (sGAGs), cartilage explants were cultured in the presence of 10 μCi/mL 35S-sulfate radiolabel during the final two days of each experiment. […]

The subject of assay [2] is human ankle cartilage explants treated with IL-1β. In words: Cumulative sGAG loss and final sGAG content (DMMB) in IL-1β challenge, human ankle cartilage. As to conditions: 100 pg/ml IL-1β; for cumulative sGAG loss compared to the untreated control: 10-day time point. The method, then:
Preliminary dose response experiments were performed to test the effects of human IL-1β (PeproTech, Rocky Hill, NJ) on human ankle cartilage. Ankle cartilage explants from two different donors (equilibrated in culture medium post-harvest) were cultured in serum-free low glucose medium (same composition as equilibration medium) and treated with continuous IL-1β doses ranging from 10 pg/ml to 1 ng/ml for 8 days. The experiments also included groups of explants that were treated with 300 ng/ml free IGF-1 at each dose level of IL-1β. Based on the results of these experiments, 100 pg/ml IL-1β was chosen as the dose used for the fusion protein dose response experiments. In these experiments, ankle and knee cartilage explants (equilibrated in culture medium post-harvest) were treated continuously with IL-1β and received single doses of fusion proteins (ranging from 39.2 nM to 2 μM) at the start of the experiments. Media changes with IL-1β but without fusion proteins were performed once every 2 to 3 days. An untreated control group, a control with continuous IL-1β alone, and a control with IL-1β combined with continuous free IGF-1 (300 ng/ml or 39.2 nM) were included. Experiments were terminated at 7-day and 10-day timepoints, and the sGAG biosynthesis rate, metabolic rate, sGAG loss to culture medium and sGAG content of the explants were measured.
The metabolic rate of cartilage explants was measured using the Alamar Blue assay (ThermoFisher). Cartilage explants were incubated for 3 hours in a 1× solution of Alamar Blue dissolved in culture medium. At the end of the incubation period, the absorbance of the medium at 570 nm and 600 nm was measured using a microplate reader (Synergy H1 Hybrid Multi-Mode Microplate Reader, BioTek). These readings were used to calculate the percentage reduction of Alamar Blue, which is directly proportional to the explant metabolic rate. These values were first normalized by individual explant weights. Following this, the weight-normalized readings for the treatment groups were normalized by the weight-normalized mean value for the untreated controls. To measure the chondrocyte biosynthesis rate of sulfated glycosaminoglycans (sGAGs), cartilage explants were cultured in the presence of 10 μCi/mL 35S-sulfate radiolabel during the final two days of each experiment. […] To calculate the cumulative loss of GAGs from the explants, the amount of sGAG lost to the medium and that left behind in the explants at the end of the experiment were measured using the dimethylene blue (DMMB) dye binding assay (Farndale et al., Biochim Biophys Acta. 883(2):173-177 (1986)).

For assay [3] the test system is unchanged. In words: IL-1β cytokine challenge model, sGAG biosynthesis rate in human ankle cartilage explants. As to conditions: continuous 39.2 nM IGF-1; 10 ng/ml mouse IL-1β; FIG. 20.

As for “(+9GFP)-(EAAAK)3-(IGF-1): fusion protein of +9 GFP and human IGF-1 with rigid (EAAAK)3 linker, SEQ ID NO: 8”, in assay [1] (Experiment 3A, ankle, all three single doses (500 nM, 1 μM, 2 μM), 7-day time point), the “aggrecan biosynthesis rate compared to the untreated control” value was “statistically significantly higher”. Besides, in assay [1], the “biosynthesis rate of explants compared to the untreated control” value is “did not increase”; the sGAG biosynthesis rate entry is on record as “significant increase”; the “elevated biosynthesis rate after single dose, up to Day 7” value was “sustained up to Day 7”; the “elevated biosynthesis rate after single dose, up to Day 15” value was “could not maintain”. In addition, in assay [2] (single 2 μM dose), the “cumulative sGAG loss compared to the untreated control” value is on record as “higher cumulative sGAG loss”.

For the substance “(+9GFP)-(GGGGS)4-(IGF-1): fusion protein of +9 GFP and human IGF-1 with flexible (GGGGS)4 linker, SEQ ID NO: 7”, the “aggrecan biosynthesis rate compared to the untreated control” value is given as “statistically significantly higher” in assay [1] (Experiment 3A, ankle, donor, single 500 nM dose, 3-day time point); “statistically significantly higher” in assay [1] (Experiment 3A, ankle, single 500 nM dose, 7-day time point); “statistically significantly higher” in assay [1] (Experiment 3A, ankle, single 1 μM dose, 7-day time point); “statistically significantly higher” in assay [1] (Experiment 3A, ankle, single 2 μM dose, 3-day time point); “statistically significantly higher” in assay [1] (Experiment 4, ankle, donor, single 500 nM dose, days 5-7); “statistically significantly higher” in assay [1] (Experiment 4, ankle, donor, single 1 μM dose, days 5-7). Further, the “biosynthesis rate of explants compared to the untreated control” value in assay [1] is “did not increase”. In addition, the sGAG biosynthesis rate entry in assay [1] is given as “significant increase”. In addition, the “elevated biosynthesis rate after single dose, up to Day 7” value in assay [1] is listed as “sustained up to Day 7”. Besides, in assay [1], the “elevated biosynthesis rate after single dose, up to Day 15” value is “could not maintain”. For the same substance, the “cumulative sGAG loss compared to the untreated control” value in assay [2] (single 500 nM dose) was “higher cumulative sGAG loss”.

As to “IGF-1: free recombinant human IGF-1 (PeproTech), pro-anabolic growth factor used as the positive control”, the “rescue of the biosynthesis loss caused by IL-1” value in assay [3] is “rescued; also recorded: could rescue”. Moreover, the “aggrecan biosynthesis rate compared to the untreated control” value in assay [1] (Experiment 3A, ankle, continuous 40 nM free IGF-1, 3-day time point) is recorded as “statistically significantly higher”; in assay [1] (Experiment 3A, ankle, continuous 40 nM free IGF-1, 7-day time point), “statistically significantly higher”; in assay [1] (Experiment 4, ankle, continuous 40 nM free IGF-1, days 5-7), “statistically significantly higher”. The “sulfate incorporation rate compared to the untreated control” value in assay [1] (continuous 39.2 nM free IGF-1, FIG. 19A) is listed as “significantly increased”. Moreover, in assay [2] (7-day time point (FIG. 15C)), the “cumulative sGAG loss to the medium compared to the untreated control” value is “higher cumulative sGAG loss”.
